From patent US7985745B2, “Method for pain treatment” (Abbott Laboratories, priority 2006, dated 2011)

Tests used:
neuropathic pain = assay: Bennett model: chronic constriction injury of sciatic nerve, mechanical stimulus; assay type: in vivo, rat
Description: To prepare animals for the model, an incision of about 1.5 cm was made about 0.5 cm below the rat pelvis. The biceps femoris and the gluteous superficialis (right side) were separated and the sciatic nerve exposed, isolated, and four loose ligatures (5-0 chromic [NT]) with 1 mm spacing were placed around it. The rats were allowed to recover and then placed in a cage with soft bedding for 10 days before assessment of pain response to mechanical stimulus by the method described above for the Chung model.

histamine H4 receptor [1] = target: T1, histamine H4 receptor (Homo sapiens, UniProt Q9H3N8); assay: 3H-histamine competition binding assay, membranes of transfected HEK-293 cells; settings: displacement of [3H]-histamine, 25° C., 1 h; read-out: Potency in Competition Binding Assay
T1 construct: expressed in transfected cells; host or cells: HEK-293 cells, transient transfection with pCINeo vector; membranes
Description: In this assay, membranes were prepared from HEK-293 cells transiently transfected with the pCINeo expression vector harboring the histamine H4 receptor by homogenization of the cells on ice in TE buffer (50 mM Tris-HCl buffer, pH 7.4, containing 5 mM EDTA), 1 mM benzamidine, 2 μg/ml aprotinin, 1 μg/ml leupeptin, and 1 μg/ml pepstatin. The homogenate was centrifuged at 40,000 g for 20 minutes at 4° C. This step was repeated, and the resulting pellet was resuspended in TE buffer. Aliquots were frozen at −70° C. until needed. On the day of assay, membranes were thawed and diluted with TE buffer. Competition radioligand binding assays were performed with increasing concentrations of test compound in the presence of [^3H]-histamine incubated at 25° C. for 1 h in a total volume of 0.5 ml of 50 mM Tris, 5 mM EDTA, pH 7.4. All binding reactions were terminated by filtration under vacuum onto polyethylenimine (0.3%) presoaked Unifilters (PerkinElmer Life Sciences) or Whatman GF/B filters (Whatman, Clifton, N.J.) followed by three brief washes with 4 ml of ice-cold TE buffer. Bound radiolabel was determined by liquid scintillation counting. For all of the radioligand competition binding assays, IC50 values and Hill slopes were determined by Hill transformation of the data and Ki values were determined by the Cheng-Prusoff equation.

thermal hyperalgesia = assay: Complete Freund's adjuvant-induced thermal hyperalgesia; assay type: in vivo, rat; settings: 30 minutes before testing, 48 hours after CFA, thermal stimulus
Description: To assess the effectiveness of representative compounds of the invention against hyperalgesia, animals were tested in an acute model of adjuvant-induced thermal hyperalgesia (see for example, Honore, et al. Behavioural Brain Research 167 (2006) 355-364; Carroll, et al. US Patent application US 2006/0025614A 1). To prepare animals for the model, a solution of Complete Freund's adjuvant (150 microliters of a 50% aqueous solution, Sigma Chemical Company, St. Louis, Mo.) was injected into the plantar surface of test paw of the animal (rat). Rats so injected develop a hyperalgesia to thermal stimulation which is assessed 48 hours after injection of the Complete Freund's adjuvant using a commercially available paw thermal stimulator (UARDG, Dept. of Anesthesiology, Univ. California at San Diego, La Jolla, Calif.). For testing, rats were placed individually in a so-called ‘hot box’ (i.e. Plexiglass cubicles mounted on a glass surface) maintained at 30° C., and allowed a 30 minute habituation period. A thermal stimulus, in the form of radiant heat emitted from a focused projection bulb, was then applied to the plantar surface of each hind paw. The stimulus current was maintained (e.g. at 4.5 Amp) and the time of exposure set to limit the extent of possible tissue damage (e.g. maximum of 20 seconds exposure to thermal heating from the projection bulb). The time (in seconds) for the withdrawal of the paw that was injected with the Complete Freund's adjuvant (CFA) and subjected to the thermal stimulus was recorded, and this was compared to the time (in seconds) for withdrawal of the uninjected paw subjected to the same thermal stimulus. […] To test the effect of a compound on the hyperalgesia, the test compound is dissolved in a vehicle (e.g. water or saline) and administered by i.p. (intraperitoneal) injection 30 minutes before the testing of the animal's response to the thermal stimulus to the paws. The antihyperalgesic activity of the compound in blocking the pain is shown by an increase in the time to withdraw the CFA-injected paw subjected to thermal stimulus. Experiments are done with single-dose and escalating-dosages of the test compound, and dose response curves constructed to determine ED50 values.

histamine H4 receptor [2] = target: T1, histamine H4 receptor; assay: FLIPR Ca2+ assay in HEK-293 cells stably expressing histamine H4 receptor and Gαqi5; assay type: cell-based; settings: Kb for antagonists and inverse agonists, EC50 for partial agonists; block of histamine-induced Ca2+ increase
Description: Histamine H4 receptors from mammalian species have been cloned. Methods to clone, express, and assess the potency and functional activity of such cloned genes are well known to those skilled in the art of molecular biology. […] Before testing, cells are loaded with a Ca^+2 sensitive fluorescent dye, in this case Fluo-4. In the case of partial agonist or agonist ligands, addition of compound to the cells leads to the increase in intracellular Ca^+2 which is detected by FLIPR (Fluorescence Imaging Plate Reader; Molecular Devices, Sunnyvale, Calif.) technology. […] The fluorescence intensities measured before addition of the test compound are subtracted from the fluorescence intensities at later time points. Peak response values determined at each concentration of ligand are expressed as a percentage of the response obtained with the full agonist histamine. Concentration versus response data are analyzed to obtain compound potency as Kb values for antagonists and inverse agonists and as EC50 values for partial agonists.

Row | Ki (histamine H4 receptor [1]) | Potency in the FLIPR assay (histamine H4 receptor [2]) | Compound | MPE (neuropathic pain; 100 micromole/kg i.p.) | MPE (neuropathic pain; 300 micromole/kg i.p.) | MPE (thermal hyperalgesia; 30 micromole/kg i.p.) | MPE (thermal hyperalgesia; 100 micromole/kg i.p.) | MPE (neuropathic pain; 250 micromole/kg i.p.) | MPE (neuropathic pain; 500 micromole/kg i.p.) | MPE (thermal hyperalgesia; 300 micromole/kg i.p.)
1 | 35 nM | 58 nM | CN1CCN(c2cc(-c3ccc(C#N)cc3)nc(N)n2)CC1.O=C(O)/C=C\C(=O)O [Example 1, 4-(2-Amino-6-(4-methylpiperazin-1-yl)pyrimidin-4-yl)benzonitrile, maleate] | 18% | 63% | 62% | 88% |  |  | 
2 |  |  | CN1CCN(C(=O)c2cc3cc(Cl)ccc3[nH]2)CC1 [Example 3, reference compound] |  |  | 27% |  | 32% | 73% | 81%
3 | 11 nM | 9 nM | CNC1CN(c2nc(N)nc3c2CCCc2ccccc2-3)C1 [Example 6, 4-(3-Methylamino-azetidin-1-yl)-6,7-dihydro-5H-benzo[6,7]cyclohepta[1,2-d]pyrimidin-2-ylamine] |  |  |  |  |  |  | 
